Data as given in PubChem BioAssay (NCI).
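Assay format: 96-well plates, 48-hour exposure. Here, GI50 denotes the concentration required for 50% inhibition of growth. TGI denotes the concentration required for complete inhibition of growth.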

How the values were obtained:
Assay in all cases: inhibition of tumour cell growth, NCI panel, 48 h
[1] = tested on: MALME-3M melanoma
[2] = tested on: RXF 393 renal
[3] = tested on: ACHN renal
[4] = tested on: CCRF-CEM leukemia
[5] = tested on: OVCAR-8 ovarian
[6] = tested on: SK-MEL-2 melanoma
[7] = tested on: HL-60(TB) leukemia
[8] = tested on: SF-295 CNS
[9] = tested on: NCI-H522 lung
[10] = tested on: NCI-H226 lung

Row | Compound | TGI [1] [µM] | TGI [2] [µM] | TGI [3] [µM] | TGI [4] [µM] | TGI [5] [µM] | TGI [6] [µM] | TGI [7] [µM] | TGI [8] [µM] | TGI [9] [µM] | TGI [10] [µM] | GI50 [1] [µM] | GI50 [2] [µM] | GI50 [3] [µM] | GI50 [4] [µM] | GI50 [5] [µM] | GI50 [6] [µM] | GI50 [7] [µM] | GI50 [8] [µM] | GI50 [9] [µM] | GI50 [10] [µM]
1 | NC1=C(Br)C(=O)c2ncccc2C1=O | 1.4 | 1.32 | 1.62 | 13.7 | 2.24 | 1.49 | 2.81 | 1.41 | 0.766 | 3.59 |  |  |  |  |  |  |  |  |  | 
2 | C/C(=C\c1ccn(-c2ccc(N)c(F)c2)n1)[C@@H]1C[C@@H]2O[C@]2(C)CCC[C@H](C)[C@H](O)[C@@H](C)C(=O)C(C)(C)[C@@H](O)CC(=O)O1 | > 50 | 0.109 | > 50 | > 50 | > 50 | > 50 | 0.323 | > 50 | 0.0321 | > 50 | 0.0217 | 0.0119 | 0.234 | 0.0114 | 0.0239 | 0.0321 | 0.00873 | 0.0205 | 0.00973 | 7.99
3 | N=c1c2c(-c3ccccc3)c(-c3ccccc3)n(Cc3ccccc3)c2ncn1CCCO | 3.84 | 2.5 | 14.3 | 12.8 | 22.2 | 5.64 | 4.74 | 3.32 | 3.46 | 12.9 | 1.55 | 0.443 | 0.457 | 1.87 | 0.739 | 1.77 | 1.77 | 0.58 | 0.756 | 0.817
4 | NC(=O)c1oc([N+](=O)[O-])c(-c2ccccc2)c1-c1ccccc1 | 16 | > 100 | 82 | 38.9 | 68.2 | 36.3 | 70 | 35.3 | 31.5 | 28.1 |  |  |  |  |  |  |  |  |  | 
5 | O=c1c2cc(Br)ccc2nc(-c2ccccc2Cl)n1NCC1(O)OCC(O)C(O)C1O (stereo not given) | > 100 | > 100 | > 100 | > 100 | > 100 | > 100 | > 100 | > 100 | > 100 | > 100 |  |  |  |  |  |  |  |  |  | 
6 | CN(C)CCNC(=O)c1ccc(C(=O)NCCN(C)C)c2nc3ccccc3cc12 | 2.97 | 2.09 | 8.58 | 10.2 | 12.7 | 2.57 | 9.5 | 16.4 | 1.93 | 3.6 |  |  |  |  |  |  |  |  |  | 
7 | C[C@H]1[C@H](C)CC[C@]2(C(=O)N3CCN(C)CC3)CC[C@]3(C)C(=CC[C@@H]4[C@@]5(C)C/C(=C/c6cccnc6)C(=O)C(C)(C)[C@@H]5CC[C@]43C)[C@H]12 | 2.45 | 2.55 | 2.49 | 5.64 |  | 3.08 | 1.86 | 3.01 | 1.3 | 3.77 | 1.08 | 1.24 | 1.23 | 2 |  | 1.53 | 0.487 | 1.6 | 0.328 | 1.81
8 | Fc1cccc2cc3ccc4cccc5ccc(c12)c3c45 | > 100 | > 100 | > 100 | > 100 | > 100 |  | > 100 | > 100 | > 100 | > 100 |  |  |  |  |  |  |  |  |  | 
9 | Cc1cccc(NC(=O)c2cc3cc(N=Nc4ccccc4Cl)ccc3oc2=O)c1 | > 100 | 83.2 | > 100 | > 100 | > 100 |  | > 100 | > 100 | 56.8 | 56.2 |  |  |  |  |  |  |  |  |  | 
10 | CCCCCCCCC(=O)N(C)C1C2CN3CCC(O2)C13 (stereo not given) | > 100 | > 100 | > 100 | > 100 |  | > 100 | > 100 | > 100 | > 100 | > 100 |  |  |  |  |  |  |  |  |  | 
11 | CCC(CC)n1cc(C(=O)NC(=O)NCCCCCOC(=O)CCCCCCCCCCC(=O)OCCCCCNC(=O)NC(=O)c2cn(C(CC)CC)c(=O)[nH]c2=O)c(=O)[nH]c1=O | > 100 | > 100 | > 100 | > 100 | > 100 |  | > 100 | > 100 | > 100 | > 100 |  |  |  |  |  |  |  |  |  | 
12 | N#C/C(=C1\NN=C(N)C(c2ccc(Cl)cc2)=C1O)c1ccc(Cl)cc1 | > 100 | > 100 | > 100 | > 100 | > 100 |  | > 100 | > 100 | > 100 | > 100 |  |  |  |  |  |  |  |  |  | 
13 | COc1ccc2c(c1)c(-c1nc(-c3c[nH]c4ncccc34)cs1)cn2CCCCN1CCOCC1 | 3.34 | 3.38 | 3.4 | 5.1 |  | 3.83 | 3.85 | 4.07 | 4.31 | 9.91 | 1.55 | 1.73 | 1.79 | 2.12 |  | 1.97 | 1.94 | 1.93 | 2.34 | 2.46
14 | C=CCN(N=O)C(=O)N(CCCC(NC(C)=O)C(=O)NCc1ccccc1)Cc1ccccc1 (stereo not given) | > 100 | > 100 | > 100 | 95.6 | > 100 | > 100 | 52.9 | > 100 | 84.8 |  |  |  |  |  |  |  |  |  |  | 
